Converted amounts (≈) assume the structure as drawn.
What was measured:
[1] = test system: coliform organisms; assay: Disinfection of wet-weather sewage by the system of FIGS. 1 to 3 (Example 3), coliform organism count; type: cell-based
Description: Examples of the present invention will now be described, but the invention is not restricted thereby. Drainage was treated by the system show in FIGS. 1 to 3. In all of RUN 1 to RUN 4, the amount of the disinfectant being 0 (zero) corresponds to the incoming water quality of wet-weather sewage which has flowed into rainwater removal facilities.

[2] = test system: coliform organisms; assay: Sterilization test of coliform organisms in treated sewage (Example 1); type: cell-based; details: for Coliform organism count: treated sewage (initial 12600 CFU/mL)
Description: Treated sewage containing coliform organisms, as water to be treated, was subjected to a sterilization test. As a disinfectant, each of 1-bromo-3-chloro-5,5-dimethylhydantoin (hereinafter referred to as BCDMH) (Example 1) and sodium hypochlorite (Comparative Example 1) was used. The sterilization test of coliform organisms was conducted, with the concentration of the disinfectant being varied.
In the present specification, the proportion of the disinfectant added is expressed as active chlorine for each of the bromine-based disinfectant and the chlorine-based disinfectant, and is expressed as “mg/L as Cl” calculated as the active chlorine concentration. For example, when 1 g of BCDMH is added to 1 liter of drainage, its concentration is 540 mg/L as Cl.

[3] = test system: coliform organisms; assay: Sterilization test of treated drainage from marine product processing (Example 2); type: cell-based; details: for Coliform organism count: marine product processing drainage (initial 320000 CFU/mL)
Description: Drainage from the marine product processing industry was subjected to coagulation, pressurization, floating, and separation. Then, the drainage was further treated by an activated sludge process. The resulting drainage was used as water to be treated. A sterilization test of this water to be treated was conducted, with the concentration of a disinfectant being varied. [table]

[4] = test system: aquatic organisms; details: calculated as active chlorine (Cl2); aquatic organisms in public waters; cited from earlier work
[5] = disinfectant added 2.0 mg/L as Cl

CC1(C)C(=O)N(Cl)C(=O)N1Br [BCDMH, 1-bromo-3-chloro-5,5-dimethylhydantoin]
Coliform organism count ([1]; RUN 1, sewage 120 m^3/h (incoming 97 × 10^3), amount added 6.0 mg/l as chlorine (Cl2)): 83 × 10^2 CFU/ml | Coliform organism count ([1]; RUN 1, sewage 120 m^3/h (incoming 97 × 10^3), amount added 12.0 mg/l as chlorine (Cl2)): less than 3,000 CFU/ml | Coliform organism count ([1]; RUN 2, sewage 250 m^3/h (incoming 68 × 10^3), amount added 5.0 mg/l as chlorine (Cl2)): less than 3,000 CFU/ml | Coliform organism count ([1]; RUN 2, sewage 250 m^3/h (incoming 68 × 10^3), amount added 5.0 mg/l as chlorine (Cl2), listed as A): 18 × 10^2 CFU/ml | Coliform organism count ([1]; RUN 2, sewage 250 m^3/h (incoming 68 × 10^3), amount added 10.0 mg/l as chlorine (Cl2)): 20 or less CFU/ml | Coliform organism count ([1]; RUN 3, sewage 530 m^3/h (incoming 39 × 10^3), amount added 3.0 mg/l as chlorine (Cl2)): 28 × 10^2 CFU/ml | duration of contact with combined sewer overflow for appropriate disinfection ([1]; RUN 3, sewage 530 m^3/hour, amount added 3 to 4.5 mg/l): about 50 seconds | Coliform organism count ([2]; disinfectant added 0.5 mg/L as Cl): 10800 CFU/mL | Coliform organism count ([2]; disinfectant added 1.5 mg/L as Cl): 70 CFU/mL | Coliform organism count [2, 5]: Not detected | concentration exhibiting germicidal effect relative to the concentration of sodium hypochlorite ([2]; treated sewage, Example 1): a half or less | reaction time to show sufficient effect ([2]; treated sewage, Example 1): 1 min | Coliform organism count ([3]; disinfectant added 2.0 mg/L as C1): 52000 CFU/mL | Coliform organism count ([3]; disinfectant added 3.0 mg/L as C1): 1200 CFU/mL | Coliform organism count ([3]; disinfectant added 3.5 mg/L as C1): Not detected | concentration exhibiting germicidal effect relative to the concentration of sodium hypochlorite ([3]; marine product processing drainage, Example 2): ⅓ | LC50 [4]: 0.4 µg/mL (≈ 1.66 µM)

OCl [Sodium hypochlorite, sodium hypochlorite, reference compound]
Coliform organism count ([1]; RUN 4, sewage 250 m^3/h (incoming 46 × 10^3), amount added 30 mg/l as chlorine (Cl2)): 19 × 10^3 CFU/ml | Coliform organism count ([1]; RUN 4, sewage 250 m^3/h (incoming 46 × 10^3), amount added 60 mg/l as chlorine (Cl2)): > 3,000 CFU/ml | Coliform organism count ([1]; RUN 4, sewage 250 m^3/h (incoming 46 × 10^3), amount added 60 mg/l as chlorine (Cl2), listed as B): 41 × 10^2 CFU/ml | Coliform organism count [2, 5]: 11800 CFU/mL | Coliform organism count ([2]; disinfectant added 2.5 mg/L as Cl): 2800 CFU/mL | Coliform organism count ([2]; disinfectant added 3.0 mg/L as Cl): 300 CFU/mL | Coliform organism count ([2]; disinfectant added 3.5 mg/L as Cl): Not detected | reaction time to show sufficient effect ([2]; treated sewage, Example 1): more than 5 minute | Coliform organism count ([3]; disinfectant added 6 mg/L as C1): 135000 CFU/mL | Coliform organism count ([3]; disinfectant added 8 mg/L as C1): 1900 CFU/mL | Coliform organism count ([3]; disinfectant added 10 mg/L as C1): 900 CFU/mL | Coliform organism count ([3]; disinfectant added 12 mg/L as C1): Not detected

From US6562244B1, “Method and apparatus for disinfecting drainage” (Ebara Corporation, priority 1998, dated 2003)
